Test results reported in patent publication US9549932B2, “2-(morpholin-4-yl)-1,7-naphthyridines” (BAYER PHARMA AKTIENGESELLSCHAFT, priority 2014, dated 2017).

Molecular target: full-length human ATR protein (Homo sapiens (Human), UniProt Q13535)
Test: Binding assay ATR (TR-FRET tracer displacement)
Details: tracer A, TR-FRET; read-out: ATR binding (tracer A) IC50
Source text: To determine of binding activity of the test compounds, full-length human ATR protein was expressed and purified together with ATRIP as described above. Furthermore, a fluorescently labelled compound (either tracer A or B as described above) was used as a tracer molecule. Detection of the binding event of the tracer was achieved by time-resolved fluorescence energy transfer (TR-FRET). We used an anti-GST-Terbium antibody (CisBio) that binds to the GST-tag at the N-terminus of ATR-kinase. […] Displacement of the fluorescent tracer by a test compound leads to a reduction of the TR-FRET-signal.
For the assay 50 nl of a 100-fold concentrated solution of the test compound in DMSO was pipetted into a black low volume 384well microtiter plate (MTP, Greiner Bio-One, Frickenhausen, Germany). […] The ATR-working solution was incubated for 30 min at 22° C. prior to dispensing to pre-form the complex of antiGST-Tb+GST-ATR+ATRIP. Then, 3 μl of the ATR-working solution were added to the test compound and the mixture was incubated for 10 min at 22° C. to allow pre-binding of the test compounds to ATR/ATRIP. Then, 2 μl of a 100 nM solution of either tracer A or B in assay buffer were added to the ATR-working solution. The resulting mixture was incubated for 30 min at 22° C. […] The dilution series were prepared separately before the assay on the level of the 100 fold concentrated solutions in DMSO by serial 1:3.4 dilutions in duplicate values for each concentration. IC50 values were calculated by a 4 parameter fit using standard software (GraphPad prism or equivalent).

Sequence of full-length human ATR protein (Q13535 other isoform, or with tags, fused parts or gaps): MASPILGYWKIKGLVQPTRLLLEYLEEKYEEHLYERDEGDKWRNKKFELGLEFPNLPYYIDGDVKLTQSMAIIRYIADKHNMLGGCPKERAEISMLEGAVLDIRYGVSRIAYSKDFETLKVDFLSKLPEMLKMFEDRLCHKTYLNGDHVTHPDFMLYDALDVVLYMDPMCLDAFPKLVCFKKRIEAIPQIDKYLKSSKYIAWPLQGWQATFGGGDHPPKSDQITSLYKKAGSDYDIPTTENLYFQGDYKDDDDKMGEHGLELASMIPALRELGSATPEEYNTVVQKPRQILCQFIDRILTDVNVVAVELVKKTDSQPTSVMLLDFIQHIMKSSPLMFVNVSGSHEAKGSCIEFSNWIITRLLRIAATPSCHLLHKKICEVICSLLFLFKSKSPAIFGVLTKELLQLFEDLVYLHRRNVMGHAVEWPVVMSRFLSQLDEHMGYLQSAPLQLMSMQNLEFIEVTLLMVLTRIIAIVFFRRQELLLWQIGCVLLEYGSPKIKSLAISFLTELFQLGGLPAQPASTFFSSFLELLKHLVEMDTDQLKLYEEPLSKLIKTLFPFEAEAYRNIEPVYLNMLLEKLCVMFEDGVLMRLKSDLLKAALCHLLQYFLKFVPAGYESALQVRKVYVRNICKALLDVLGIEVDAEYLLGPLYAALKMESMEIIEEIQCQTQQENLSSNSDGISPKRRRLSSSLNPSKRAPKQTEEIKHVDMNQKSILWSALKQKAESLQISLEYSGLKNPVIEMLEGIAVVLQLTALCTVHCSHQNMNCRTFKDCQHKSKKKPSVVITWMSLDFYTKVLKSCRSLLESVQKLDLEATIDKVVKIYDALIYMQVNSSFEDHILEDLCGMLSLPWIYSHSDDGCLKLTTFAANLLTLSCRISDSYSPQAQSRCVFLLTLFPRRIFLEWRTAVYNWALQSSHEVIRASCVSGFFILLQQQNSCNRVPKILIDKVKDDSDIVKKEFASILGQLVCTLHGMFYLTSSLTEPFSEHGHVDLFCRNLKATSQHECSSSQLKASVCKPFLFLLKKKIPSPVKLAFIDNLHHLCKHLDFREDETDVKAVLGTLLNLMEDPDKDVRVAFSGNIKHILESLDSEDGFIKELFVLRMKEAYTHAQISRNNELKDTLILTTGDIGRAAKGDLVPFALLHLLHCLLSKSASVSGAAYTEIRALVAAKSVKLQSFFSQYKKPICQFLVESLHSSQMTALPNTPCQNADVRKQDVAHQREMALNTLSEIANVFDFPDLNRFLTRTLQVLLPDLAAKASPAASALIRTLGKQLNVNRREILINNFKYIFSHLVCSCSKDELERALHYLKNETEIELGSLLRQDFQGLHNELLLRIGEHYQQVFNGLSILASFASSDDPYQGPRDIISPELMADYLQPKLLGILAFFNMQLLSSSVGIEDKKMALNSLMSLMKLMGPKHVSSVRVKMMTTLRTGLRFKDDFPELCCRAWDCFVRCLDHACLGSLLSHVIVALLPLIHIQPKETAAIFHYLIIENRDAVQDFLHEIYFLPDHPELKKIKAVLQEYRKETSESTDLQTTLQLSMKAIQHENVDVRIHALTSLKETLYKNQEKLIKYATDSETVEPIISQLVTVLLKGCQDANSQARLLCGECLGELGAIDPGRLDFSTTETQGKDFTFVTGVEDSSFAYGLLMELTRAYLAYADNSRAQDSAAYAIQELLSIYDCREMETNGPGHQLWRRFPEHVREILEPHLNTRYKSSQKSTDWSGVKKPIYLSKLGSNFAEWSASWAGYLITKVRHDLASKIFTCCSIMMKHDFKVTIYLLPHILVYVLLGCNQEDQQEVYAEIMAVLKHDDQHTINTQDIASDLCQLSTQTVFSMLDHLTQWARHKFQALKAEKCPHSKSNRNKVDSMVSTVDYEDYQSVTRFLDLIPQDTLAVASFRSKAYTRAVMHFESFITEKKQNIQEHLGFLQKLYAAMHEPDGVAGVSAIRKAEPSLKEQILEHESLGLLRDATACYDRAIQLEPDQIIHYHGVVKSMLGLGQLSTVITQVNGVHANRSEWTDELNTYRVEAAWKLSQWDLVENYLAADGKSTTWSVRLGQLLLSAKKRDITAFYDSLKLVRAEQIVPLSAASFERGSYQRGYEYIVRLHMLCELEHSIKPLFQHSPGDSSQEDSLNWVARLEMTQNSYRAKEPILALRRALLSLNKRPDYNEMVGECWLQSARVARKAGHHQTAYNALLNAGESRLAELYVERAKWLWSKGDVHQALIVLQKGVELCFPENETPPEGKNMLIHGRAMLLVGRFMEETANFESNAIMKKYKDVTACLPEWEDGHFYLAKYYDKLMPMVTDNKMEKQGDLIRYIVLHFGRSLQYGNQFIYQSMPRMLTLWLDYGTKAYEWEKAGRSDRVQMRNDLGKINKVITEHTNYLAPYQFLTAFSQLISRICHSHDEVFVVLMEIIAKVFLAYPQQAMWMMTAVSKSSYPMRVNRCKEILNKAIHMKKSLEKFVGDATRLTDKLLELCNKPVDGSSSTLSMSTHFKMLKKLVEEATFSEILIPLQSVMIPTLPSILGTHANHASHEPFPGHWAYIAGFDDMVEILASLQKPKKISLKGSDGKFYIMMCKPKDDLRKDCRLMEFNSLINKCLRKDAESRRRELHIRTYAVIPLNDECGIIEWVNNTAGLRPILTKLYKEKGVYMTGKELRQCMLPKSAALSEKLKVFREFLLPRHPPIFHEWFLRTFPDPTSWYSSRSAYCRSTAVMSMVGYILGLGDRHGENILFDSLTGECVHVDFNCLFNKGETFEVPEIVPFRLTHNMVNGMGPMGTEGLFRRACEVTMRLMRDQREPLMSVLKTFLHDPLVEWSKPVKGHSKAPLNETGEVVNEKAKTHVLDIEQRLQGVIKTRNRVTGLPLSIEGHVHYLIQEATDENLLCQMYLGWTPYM
Sequence of full-length human ATR protein (Q8WXE1 other isoform, or with tags, fused parts or gaps partner): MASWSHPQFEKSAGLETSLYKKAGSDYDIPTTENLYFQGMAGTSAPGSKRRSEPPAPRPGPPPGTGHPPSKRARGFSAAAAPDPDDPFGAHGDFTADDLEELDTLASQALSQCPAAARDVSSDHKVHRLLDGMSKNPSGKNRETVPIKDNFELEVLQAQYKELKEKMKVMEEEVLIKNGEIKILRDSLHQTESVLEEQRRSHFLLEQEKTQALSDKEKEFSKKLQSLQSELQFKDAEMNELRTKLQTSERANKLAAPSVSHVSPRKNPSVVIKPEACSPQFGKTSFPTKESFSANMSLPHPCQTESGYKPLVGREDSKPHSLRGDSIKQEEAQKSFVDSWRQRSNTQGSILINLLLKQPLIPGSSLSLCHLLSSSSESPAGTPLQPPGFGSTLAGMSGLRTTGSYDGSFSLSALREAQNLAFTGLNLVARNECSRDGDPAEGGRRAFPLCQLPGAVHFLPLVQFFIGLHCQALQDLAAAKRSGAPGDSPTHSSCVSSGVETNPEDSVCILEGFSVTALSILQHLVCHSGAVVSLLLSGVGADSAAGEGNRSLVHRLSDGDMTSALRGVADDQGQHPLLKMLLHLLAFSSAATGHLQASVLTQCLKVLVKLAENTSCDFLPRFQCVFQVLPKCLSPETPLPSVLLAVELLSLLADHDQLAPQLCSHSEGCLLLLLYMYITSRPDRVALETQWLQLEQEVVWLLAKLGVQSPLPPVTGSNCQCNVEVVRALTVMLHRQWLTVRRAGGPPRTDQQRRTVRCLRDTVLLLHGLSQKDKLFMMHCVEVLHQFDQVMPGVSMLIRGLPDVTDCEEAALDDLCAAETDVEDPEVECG

| SMILES | IC50 [nM] |
| --- | --- |
| CC(C)(C)NC(=O)c1cncc(-c2cc(N3CCOCC3)nc3c(-c4ccn[nH]4)nccc23)c1 [Example 399, N-tert-butyl-5-[2-(morpholin-4-yl)-8-(1H-pyrazol-5-yl)-1,7-naphthyridin-4-yl]pyridine-3-carboxamide] | 618 |
| CS(=O)(=O)Cc1cc(N2CCOCC2)nc2c(-c3ccn[nH]3)nccc12 [Example 37, 4-methanesulphonylmethyl-2-morpholin-4-yl-8-(2H-pyrazol-3-yl)-[1,7]naphthyridine] | 170 |
| c1cc(-c2nccc3c(N4CCCCC4)cc(N4CCOCC4)nc23)[nH]n1 [Example 408, 2-(morpholin-4-yl)-4-(piperidin-1-yl)-8-(1H-pyrazol-5-yl)-1,7-naphthyridine] | 65.1 |
| C[C@@H]1COCCN1c1cc(-c2ccnn2CC(F)(F)F)c2ccnc(-c3ccn[nH]3)c2n1 [Example 156, 2-[(3R)-3-methylmorpholin-4-yl]-8-(1H-pyrazol-5-yl)-4-[1-(2,2,2-trifluoroethyl)-1H-pyrazol-5-yl]-1,7-naphthyridine] | 80.1 |
| C[C@@H]1COCCN1c1cc(N=S2(=O)CCCC2)c2ccnc(-c3ccn[nH]3)c2n1 [Example 137, N-{2-[(3R)-3-methylmorpholin-44-yl]-8-(1H-pyrazol-5-yl)-1,7-naphthyridin-4-yl}tetrahydro-1H-1λ^4-thiophen-1-imine 1-oxide] | 26 |
| C[C@@H]1COCCN1c1cc(OC(F)F)c2ccnc(-c3ccn[nH]3)c2n1 [Example 172, 4-(difluoromethoxy)-2-[(3R)-3-methylmorpholin-4-yl]-8-(1H-pyrazol-5-yl)-1,7-naphthyridine] | 82.8 |
| C[C@@H]1COCCN1c1cc(-c2cn[nH]c2)c2ccnc(-c3ccn[nH]3)c2n1 [Example 269, 2-[(3R)-3-methylmorpholin-4-yl]-4-(1H-pyrazol-4-yl)-8-(1H-pyrazol-5-yl)-1,7-naphthyridine] | 12.7 |
| CN=S(C)(=O)c1ccc(-c2cc(N3CCOCC3)nc3c(-c4ccn[nH]4)nccc23)cc1 (stereo not shown) [Example 5, 4-[4-(N,S-dimethylsulfonimidoyl)phenyl]-2-[morpholin-4-yl]-8-(1H-pyrazol-5-yl)-1,7-naphthyridine] | 64.3 |
| Cc1nnc(-c2cc(N3CCOC[C@H]3C)nc3c(-c4ccn[nH]4)nccc23)o1 [Example 136, 2-[(3R)-3-methylmorpholin-4-yl]-4-(5-methyl-1,3,4-oxadiazol-2-yl)-8-(1H-pyrazol-5-yl)-1,7-naphthyridine] | 35.8 |
| Nc1ncccc1-c1cc(N2CCOCC2)nc2c(-c3ccn[nH]3)nccc12 [Example 402, 3-[2-(morpholin-4-yl)-8-(1H-pyrazol-5-yl)-1,7-naphthyridin-4-yl]pyridin-2-amine] | 299 |
| C[C@@H]1COCCN1c1cc(C2CC2)c2ccnc(-c3cc[nH]n3)c2n1 [Example 29, 4-cyclopropyl-2-((R)-3-methylmorpholin-4-yl)-8-(1H-pyrazol-3-yl)-[1,7]-naphthyridine] | 21.5 |
| CCSc1cc(N2CCOCC2)nc2c(-c3ccn[nH]3)nccc12 [Example 209, 4-(ethylsulfanyl)-2-(morpholin-4-yl)-8-(1H-pyrazol-5-yl)-1,7-naphthyridine] | 385 |
| C[C@@H]1COCCN1c1cc(N=S(C)(=O)C(C)(C)C)c2ccnc(-c3ccn[nH]3)c2n1 (stereo partly drawn) [Example 278, 4-{[tert-butyl(methyl)oxido-λ^6-sulfanylidene]amino}-2-[(3R)-3-methylmorpholin-4-yl]-8-(1H-pyrazol-5-yl)-1,7-naphthyridine] | 26.9 |
| Cc1cscc1-c1cc(N2CCOC[C@H]2C)nc2c(-c3ccn[nH]3)nccc12 [Example 101, 2-[(3R)-3-methylmorpholin-4-yl]-4-(4-methyl-3-thienyl)-8-(1H-pyrazol-5-yl)-1,7-naphthyridine] | 11.3 |
| O=S1(=Nc2cc(N3CCOCC3)nc3c(-c4ccn[nH]4)nccc23)CCOCC1 [Example 279, formic acid - N-[2-(morpholin-4-yl)-8-(1H-pyrazol-5-yl)-1,7-naphthyridin-4-yI]-1,4k4-oxathian-4-imine 4-oxide (1:1)] | 293 |
| Cc1ccc(-c2cc(N3CCOCC3)nc3c(-c4ccn[nH]4)nccc23)cn1 [Example 388, 4-(6-methylpyridin-3-yl)-2-(morpholin-4-yl)-8-(1H-pyrazol-5-yl)-1,7-naphthyridine] | 79.1 |
| C[C@@H]1COCCN1c1cc(C2=CCSCC2)c2ccnc(-c3ccn[nH]3)c2n1 [Example 108, 4-(3,6-dihydro-2H-thiopyran-4-yl)-2-[(3R)-3-methylmorpholin-4-yl]-8-(1H-pyrazol-5-yl)-1,7-naphthyridine] | 11.5 |
| C[C@@H]1COCCN1c1cc(-c2ccccc2N)c2ccnc(-c3ccn[nH]3)c2n1 [Example 71, 2-{2-[(3R)-3-methylmorpholin-4-yl]-8-(1H-pyrazol-5-yl)-1,7-naphthyridin-4-yl]aniline] | 5.65 |
| C[C@@H]1CN(c2cc(N3CCOCC3)nc3c(-c4ccn[nH]4)nccc23)C[C@H](C)N1 [Example 179, 4-[(cis)-3,5-dimethylpiperazin-1-yl]-2-(morpholin-4-yl)-8-(1H-pyrazol-5-yl)-1,7-naphthyridine] | 454 |
| C[C@@H]1COCCN1c1cc(-c2ccc(S(C)(=N)=O)cc2)c2ccnc(-c3ccn[nH]3)c2n1 (stereo partly drawn) [Example 30, 4-[2-((R)-3-methylmorpholin-4-yl)-8-(2H-pyrazol-3-yl)-[1,7]naphthyridine-4-yl]phenyl-S-methylsulphoximide] | 22.8 |
| Cc1cc(-c2cc(N3CCOCC3)nc3c(-c4ccn[nH]4)nccc23)ccn1 [Example 188, 4-(2-methylpyridin-4-yl)-2-(morpholin-4-yl)-8-(1H-pyrazol-5-yl)-1,7-naphthyridine] | 251 |
| Oc1ccc(-c2cc(N3CCOCC3)nc3c(-c4ccn[nH]4)nccc23)cn1 [Example 390, 5-[2-(morpholin-4-yl)-8-(1H-pyrazol-5-yl)-1,7-naphthyridin-4-yl]pyridin-2-ol] | 663 |
| C[C@@H]1COCCN1c1cc(-c2ccns2)c2ccnc(-c3ccn[nH]3)c2n1 [Example 121, 2-[(3R)-3-methylmorpholin-4-yl]-8-(1H-pyrazol-5-yl)-4-(1,2-thiazol-5-yl)-1,7-naphthyridine] | 17.4 |
| O=C1OCCCN1c1cc(N2CCOCC2)nc2c(-c3ccn[nH]3)nccc12 [Example 225, 3-[2-(morpholin-4-yl)-8-(1H-pyrazol-5-yl)-1,7-naphthyridin-4-yl]-1,3-oxazinan-2-one] | 447 |
| C[C@@H]1COCCN1c1cc(-c2ccnn2C2COC2)c2ccnc(-c3ccn[nH]3)c2n1 [Example 133, 2-[(3R)-3-methylmorpholin-4-yl]-4-[1-(oxetan-3-yl)-1H-pyrazol-5-yl]-8-(1H-pyrazol-5-yl)-1,7-naphthyridine] | 27 |
| [O-][S+](c1ccccc1)c1cc(N2CCOCC2)nc2c(-c3ccn[nH]3)nccc12 (stereo not shown) [Example 201, 2-(morpholin-4-yl)-4-(phenylsulfinyl)-8-(1H-pyrazol-5-yl)-1,7-naphthyridine] | 40 |
| COCCS(C)(=O)=Nc1cc(N2CCOC[C@H]2C)nc2c(-c3ccn[nH]3)nccc12 (stereo partly drawn) [Example 274, 4-{[(2-methoxyethyl)(methyl)oxido-λ^6-sulfanylidene]amino}-2-[(3R)-3-methylmorpholin-4-yl]-8-(1H-pyrazol-5-yl)-1,7-naphthyridine] | 62.7 |

Same assay, conditions: tracer B, TR-FRET; read-out: ATR binding (tracer B) IC50

| SMILES | IC50 [nM] |
| --- | --- |
| CS(=O)(=O)Cc1cc(N2CCOCC2)nc2c(-c3ccn[nH]3)nccc12 [Example 37, 4-methanesulphonylmethyl-2-morpholin-4-yl-8-(2H-pyrazol-3-yl)-[1,7]naphthyridine] | 127 |
| CN=S(C)(=O)c1ccc(-c2cc(N3CCOCC3)nc3c(-c4ccn[nH]4)nccc23)cc1 (stereo not shown) [Example 5, 4-[4-(N,S-dimethylsulfonimidoyl)phenyl]-2-[morpholin-4-yl]-8-(1H-pyrazol-5-yl)-1,7-naphthyridine] | 34.1 |
| C[C@@H]1COCCN1c1cc(C2CC2)c2ccnc(-c3cc[nH]n3)c2n1 [Example 29, 4-cyclopropyl-2-((R)-3-methylmorpholin-4-yl)-8-(1H-pyrazol-3-yl)-[1,7]-naphthyridine] | 9.23 |
| C[C@@H]1COCCN1c1cc(-c2ccc(S(C)(=N)=O)cc2)c2ccnc(-c3ccn[nH]3)c2n1 (stereo partly drawn) [Example 30, 4-[2-((R)-3-methylmorpholin-4-yl)-8-(2H-pyrazol-3-yl)-[1,7]naphthyridine-4-yl]phenyl-S-methylsulphoximide] | 9.48 |
